The values that follow are results of earlier work, collected in patent US20220370444A1 (priority 2019, published 2022).

The subject of one series is TB. The conditions noted are these: after two weeks of oral administration.
The conditions of series [1]: not told.
For series [2] the following is noted: in vivo.

`CC(C)/N=c1\cc2n(-c3ccc(Cl)cc3)c3ccccc3nc-2cc1Nc1ccc(Cl)cc1` [clofazimine]: in the series with TB, the clinical benefit entry is given as “no clinical benefit”. In addition, the membrane permeability result in series [1] was “high”. For the same molecule, the “absorption in humans after oral administration” value in series [2] was 45-62%.
